“Also recorded” adds a separate entry of the source.
Tests used:
[1] = test system: smooth muscle; details: cited from earlier work
[2] = Effect of the compounds separated from Cibotii rhizoma on arthritis; details: summary statement
[3] = test system: edema of arthritis; test: Inhibitory effect on edema of arthritis (Zymosan-A/Freund's adjuvant induced paw edema); type: in vivo; details: albino rats; for inhibitory effect on edema: test for edema induction
Description: In order to observe the inhibitory effect on edema of the pharmaceutical composition of the present invention, 6 albino rats weighing 200 g were used per test group to induce edema by injecting the mixture of 0.5 ml of Zymosan-A (20 mg/ml/kg) and 0.5 ml of Freund's adjuvant into ST36 position of left paw and then observed for the progress of edema for 70 days by taking a photograph before and after induction of edema. The water extract and organic solvent fractions of the pharmaceutical composition of the present invention were respectively constituted in the concentration of 0.6 mg/ml and then orally administered for 14 days to albino rats in an amount of 1 ml per kg of body weight once a day to determine the inhibitory effect on edema. As the test sample, the organic solvent fractions of the pharmaceutical composition including ABE, ABB, ABW, CBE, CBB, CBW, LNE, LNB, LNW, CRB, CRW, SSH and SSW were respectively used. As the result of this test, it was observed that edema was started to induce on day 4 and reached the peak point after about 45 days. The period for this test was established as 70 days after edema induction to observe the inhibitory effect on edema of the extracts of the present invention. As the result, the edema size was measured using a precision gauge.
The inihibitory effect on edema of the compound according to the present invention as measured after 70 days have passed are listed in the following Tables 2 and 3 and FIG. 4.

[4] = test system: Raw 264.7 cell lines; test: Effect on cell cycle of macrophage cells (flow cytometry); type: cell-based; details: Raw 264.7, LPS-stimulated, 20 μg/ml
Description: (§1) Two kinds of cells were incubated as in Experiment 6 and then washed with PBS (phosphate-buffered saline). LPS was distributed on the respective dishes at the concentration of 50 μg/ml to stimulate the cells. Then, the extract according to the present invention was added over 2 hours so as to make the final concentration of 20 μg/ml. The supernatant was removed, washed with PBS and then treated with trypsin. The cells were harvested, introduced into Eppendorf tube and then centrifuged at 1,000 rpm for 5 minutes to remove the supernatant. The residue was fixed with addition of 1 ml of 100% ethanol. At this time, the mixture of 5 μg/ml propidium iodide and RNAse was separately prepared. The fixed cells were centrifuged to remove the supernatant and then washed once with PBS. Simultaneously, the staining agent as previously prepared above was added to the fixed cells and then warmed in an incubator at 37° C. for 30 minutes. The cells stained with propidium iodide was sealed with foil, stored at 4° C. and then subjected to a flow cytometry analysis using FACscan (Becton Dickinson, Calif.) as the analyzing apparatus.

[5] = test system: Raw 264.7 cell lines; test: Induction of apoptosis of macrophages; type: cell-based; details: Raw 264.7, 24 hours, microscopy
Description: (§2) In order to determine whether the compound identified as the effective component of the pharmaceutical composition separated according to the present invention can induce the apoptosis of Raw 264.7 cell lines as macrophage involved in inflammatory reaction and synovial cells, the cells were distributed on 5% DMEM medium supplemented with penicillin/streptomycin in a 6-well culture dish at the concentration of 10^4 cells and then incubated at 37° C. for 24 hours while adding the extractions as above at the concentration of 10 μg/ml to observe the reaction. Apoptosis was examined by taking a photograph of apoptosis-induced cells under a polarizing microscope of 200 magnifications.

[6] = test system: COX-II; test: Inhibition of COX-II expression at the level of transcription through RT-PCR; type: cell-based, human
Description: (§3) In order to identify the ingredient having an inhibitory activity against COX-II and inducible nitric oxide synthetase (iNOS) as the causal factors of rheumatoid arthritis in the extract used as the effective component of the pharmaceutical composition according to the present invention as in Experiment 7 above, the cells were distributed in T75 flask at the concentration of 10^5 cells, incubated for 7 days and then stimulated for 2 hours by introducing LPS in the flask at the concentration of 50 ng/ml. Then, the extract of the present invention was added so as to make the final concentration of 50 μg/ml. The cells were harvested into a 1.5 ml Eppendorf tube and centrifuged with 15,000 rpm at 4° C. for 15 minutes to remove the supernatant. 200 μl of RNAzol solution was added to the residue followed by addition of 50 μl of chloroform. The cells were lysed by careful pippeting, and then centrifuged with 15,000 rpm at 4° C. for 15 minutes to recover a total RNA, which was then precipitated at 4° C. for 15 minutes by adding the same volume of isopropanol, washed once with 75% ethanol and then dried. The cell lysate was dissolved by adding 20 μl of RNase free D2O and then warming the mixture at 60° C. for 30 minutes. […]

[7] = test system: CAM formation induced by synovial cells; test: Angiogenesis of synovial cells in chorioallantoic membrane (CAM) of fertilized egg; type: in vivo; details: 10 μg/ml on CAM, synovial cells injected, compared to control group
Description: In order to determine the effect of the organic solvent fractions on the angionenesis of synovial cells using the cells separated in Experiment 2, synovial cells were injected into fertilized egg and then incubated in an incubator at 37° C. for 3 days to observe the formation of chorioallantoic membrane (CAM). In the present state, the fractions separated according to the above method were respectively distributed on CAM at the concentration of 10 μg/ml to observe the degree of CAM decrease.

[8] = test system: NO formation in RAW 264.7 cell lines; test: NO formation in macrophage cells stimulated by lipid polysaccharide (Greiss reagent); type: cell-based; details: 10 μg/ml, LPS-stimulated RAW 264.7
Description: FIG. 7 is (a) a bar graph showing the inhibition of NO formation when Raw 264.7 cell lines are treated with the organic solvent fraction of a single drug of the pharmaceutical composition at the concentration of 10 μg/ml for 24 hours an then stimulated with LPS, and (b) a bar graph showing the inhibition of NO formation when the cell lines treated with CBB fraction and LNE fraction as the organic solvent fractions are stimulated with LPS according to the same manner as above (a).
In order to identify whether the extracts obtained according to the present invention can inhibit the synthesis of nitric oxide (NO) as the potent inducer of inflammation in blood due to edema as above, macrophage RAW 264.7 cell lines were distributed in a 96-well microplate at the concentration of 10^3 cells per well and then incubated for 12 hours. Then, lipid polysaccharide was added to the plate at the concentration of 50 ng/well to stimulate the cells for 2 hours. The respective organic solvent fractions were added to the plate to the final concentration of 10 μg/ml followed by addition of 50 μl of Greiss reagent solution, and then allowed to react together at room temperature. Then, the absorbance of the plate was measured at 540 nm of ELISA (enzyme-linked immunosorbent assay) reader. […]

[9] = test system: synovial cells; test: Induction of apoptosis of synovial cell lines; type: cell-based, human; details: 24 hours, microscopy
Description: The synovial cells separated from outpatients suffering from rheumatoid arthritis were distributed on 5% DMEM medium supplemented with penicillin/streptomycin in a 6-well culture dish at the concentration of 10^4 cells and then incubated for 24 hours at 37° C. to observe the surviving cells. In order to determine the presence or absence of cells and the proliferating state of cells, apoptosis-induced cells were examined by taking their photographs under a phase-contrast microscope of 200 magnifications.
as §2

[10] = test system: nogo-A expressed U-373 MG glioblastoma cell line; test: Therapeutic effect on vertebral neuroparalysis (neurite regeneration in nogo-A expressing cells); type: cell-based; details: nogo-A expressed U-373 cell lines, phase-contrast microscopy
Excerpt: Simultaneously, it was also observed whether neurites can be regenerated by treatment with neuronal growth factor (NGF) or whether the fractions of the present invention can provide the same effect, by taking a photograph with a phase-contrast microscope of 200 magnifications.

[11] = test system: iNOS; test: Inhibition of iNOS expression at the level of transcription through RT-PCR; type: cell-based, human; details: FIG. 12a, lanes 1-8; 50 μg/ml, LPS-stimulated
Description: as §3

[12] = test system: cartilage and bone of arthritic joint; test: Joint rupture in edema-inhibited albino rats by X-ray analysis; type: in vivo; details: edema-induced albino rats, oral, about 70 days
Description: FIG. 13 is X-ray photograph to show the 70-days inhibitory effect on edema as one of chronic and degenerative osteopathological symptoms of arthritis by treating the induced edema with respective fractions obtained as the organic solvent fractions of the pharmaceutical composition in an amount of 75 μg/ml for 2 weeks via oral route.
The respective water extract and organic solvent fractions were orally administered for 14 days at the concentration of 75 μg/ml to investigate their inhibitory effect on edema as in Experiment 1. The test albino rats were anesthetized to take X-ray photograph.

[13] = test system: synovial cell lines; test: Effect on cell cycle of synovial cell lines (flow cytometry); type: cell-based, human; details: LPS-stimulated, 20 μg/ml
Description: as §1

Compound | activity for relaxing smooth muscle [1] | pharmacological effect on arthritis [2] | edema size, Before treatment ([3]; Table 3 (unit not given), oral, baseline before treatment, in mm) | edema size, After treatment ([3]; Table 3 (unit not given), oral, measured after 70 days, in mm) | inhibitory effect on edema [3] | effect on cell cycle [4] | induction of apoptosis [5] | effect on COX-II expression (RT-PCR) ([6]; FIG. 12a, lanes 1-8, 50 μg/ml, LPS-stimulated) | effect on COX-II expression (RT-PCR) ([6]; FIG. 12c, respective fractions) | inhibition of induction of CAM formation [7] | inhibition of NO formation [8] | induction of apoptosis [9] | regeneration of neurites [10] | effect on iNOS expression (RT-PCR, band near 278 bp) [11] | osteogenesis (X-ray) [12] | rupture of cartilage in arthritic portion (X-ray) [12] | effect on cell cycle [13]
Cc1c(O)c2c(c(C)c1CCO)C(=O)C(C)(C)C2 [CBB-11, onitin] | activity for relaxing smooth muscle | moderate pharmacological effect |  |  |  |  |  |  |  |  |  |  |  |  |  |  | 
2-O-(9z,12z-octadecadienyl)-3-O-[α-galactopyranosyl-(1″-6′)-O-α-D-galactopyranosyl]glycerol [CBB-13] |  | most excellent pharmacological effect | 14.4 ± 2 | 2.5 ± 1 | potent inhibitory effect on edema; also recorded: most significant | induced the apoptosis | more strongly inducing the apoptosis | inhibitory effect at the level of transcription | strongly inhibit the protein expression | more strongly inhibited the induction of CAM formation | stronger inhibitory effect on NO formation | more strongly inducing the apoptosis | neurites were lengthened | have an effect on the protein expression | effect of stimulating the osteogenesis | inhibits the rupture of cartilage in arthritic portion | pattern of G0/G1 arrest
CC[C@H](CC[C@@H](C)[C@H]1CC[C@H]2[C@@H]3CC=C4C[C@@H](O[C@@H]5O[C@H](CO)[C@@H](O)[C@H](O)[C@H]5O)CC[C@]4(C)[C@H]3CC[C@]12C)C(C)C [CBB-12, daucosterol] |  |  |  |  | potent inhibitory effect on edema |  |  |  |  |  |  |  |  |  |  |  | 

Source: patent publication US6531582B1, “2-O-(9z,12z-octadecadienoyl)-3-O-[α-D-galactopyranosyl-(1″-6′)-O-α-D-galactopyranosyl]glycerol and pharmaceutical composition containing the same” (priority 2000, dated 2003)
